Measurements: ChEMBL document CHEMBL5316282, “Small-Molecule Cyanamide Pan-TEAD·YAP1 Covalent Antagonists” (J Med Chem, 2023)
Calls of active or inactive are those of the source. The rule behind the calls is not given here.

Tests used:
[1] = molecular target: T1, Transcriptional enhancer factor TEF-4 (Homo sapiens, UniProt Q15562); test: Displacement of FAM- labeled YAP1 peptide (60 to 99 residues) from human TEAD2 (217 to 447 residues) expressed in Escherichia coli BL21 (DE3) cells incubated for 24 hrs by fluorescence polarization-based competitive binding assay
T1 sequence (Q15562 whole entry, the tested form may be a part): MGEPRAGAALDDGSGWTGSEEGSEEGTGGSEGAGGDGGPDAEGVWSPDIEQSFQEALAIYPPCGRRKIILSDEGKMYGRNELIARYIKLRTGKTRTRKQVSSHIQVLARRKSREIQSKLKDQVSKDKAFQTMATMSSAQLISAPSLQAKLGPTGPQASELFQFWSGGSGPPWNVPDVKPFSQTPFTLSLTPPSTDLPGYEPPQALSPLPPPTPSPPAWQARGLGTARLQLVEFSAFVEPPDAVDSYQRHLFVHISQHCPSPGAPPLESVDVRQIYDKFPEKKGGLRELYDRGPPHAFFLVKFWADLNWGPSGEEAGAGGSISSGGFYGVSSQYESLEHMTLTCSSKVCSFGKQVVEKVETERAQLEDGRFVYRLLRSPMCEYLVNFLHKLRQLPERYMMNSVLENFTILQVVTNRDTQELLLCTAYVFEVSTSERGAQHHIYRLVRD

[2] = molecular target: T2, Transcriptional enhancer factor TEF-1 (Homo sapiens, UniProt P28347); test: Displacement of FAM- labeled YAP1 peptide (60 to 99 residues) from human TEAD1 (209 to 426 residues) expressed in Escherichia coli BL21 (DE3) cells incubated for 24 hrs by fluorescence polarization-based competitive binding assay
T2 sequence (P28347 whole entry, the tested form may be a part): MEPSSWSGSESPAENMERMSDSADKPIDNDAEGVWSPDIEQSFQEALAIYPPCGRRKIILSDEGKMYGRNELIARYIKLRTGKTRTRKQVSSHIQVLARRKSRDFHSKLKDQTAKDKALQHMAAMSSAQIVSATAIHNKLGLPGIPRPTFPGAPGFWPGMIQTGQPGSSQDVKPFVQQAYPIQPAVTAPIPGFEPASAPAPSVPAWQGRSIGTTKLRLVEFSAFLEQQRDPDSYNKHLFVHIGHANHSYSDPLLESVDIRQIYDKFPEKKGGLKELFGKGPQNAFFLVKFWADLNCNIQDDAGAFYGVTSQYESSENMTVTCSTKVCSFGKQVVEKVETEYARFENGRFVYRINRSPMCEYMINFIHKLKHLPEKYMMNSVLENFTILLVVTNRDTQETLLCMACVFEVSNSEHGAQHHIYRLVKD

[3] = tested on: Transcriptional enhancer factor TEF-3 (Homo sapiens), Q15561 [C367S]; test: Displacement of FAM- labeled YAP1 peptide (60 to 99 residues) from human TEAD4 (217 to 434 residues) C367S mutant expressed in Escherichia coli BL21 (DE3) cells at 0.2 to 100 uM incubated for 24 hrs by fluorescence polarization-based competitive binding assay; conditions: dose 0.2-100 µM
Transcriptional enhancer factor TEF-3 (Homo sapiens), Q15561 [C367S], sequence (Q15561 whole entry C367S, the tested form may be a part): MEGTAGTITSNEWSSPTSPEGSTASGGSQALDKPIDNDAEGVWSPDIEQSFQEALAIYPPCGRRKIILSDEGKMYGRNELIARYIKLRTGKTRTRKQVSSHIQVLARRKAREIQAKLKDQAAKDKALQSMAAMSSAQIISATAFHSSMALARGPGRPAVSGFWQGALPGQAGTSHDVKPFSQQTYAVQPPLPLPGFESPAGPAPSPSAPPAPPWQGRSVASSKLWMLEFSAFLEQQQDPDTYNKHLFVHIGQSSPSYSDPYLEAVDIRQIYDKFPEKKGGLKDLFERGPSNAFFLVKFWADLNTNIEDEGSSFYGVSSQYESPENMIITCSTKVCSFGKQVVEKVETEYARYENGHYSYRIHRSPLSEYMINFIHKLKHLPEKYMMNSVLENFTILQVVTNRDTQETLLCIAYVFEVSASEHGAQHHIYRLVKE

[4] = molecular target: T1, Transcriptional enhancer factor TEF-4; test: Displacement of FAM- labeled YAP1 peptide (60 to 99 residues) from human TEAD2 (217 to 447 residues) expressed in Escherichia coli BL21 (DE3) cells assessed as maximum inhibition at 0.2 to 100 uM incubated for 24 hrs by fluorescence polarization-based competitive binding assay relative to control; conditions: dose 0.2-100 µM
[5] = tested on: MDA-MB-468; test: Inhibition of TEAD in human MDA-MB-468 cells assessed as maximal inhibition of CTGF transcriptional level at 0.01 to 100 uM incubated for 24 hrs by qRT-PCR assay relative to control; format: cell-based; conditions: dose 0.01-100 µM
[6] = molecular target: T3, Transcriptional enhancer factor TEF-3 (Homo sapiens, UniProt Q15561); test: Displacement of FAM- labeled YAP1 peptide (60 to 99 residues) from human TEAD4 (217 to 434 residues) expressed in Escherichia coli BL21 (DE3) cells incubated for 24 hrs by fluorescence polarization-based competitive binding assay
T3 sequence (Q15561 whole entry, the tested form may be a part): as the sequence (Q15561 whole entry C367S, the tested form may be a part) above, with S367C counted along it

[7] = molecular target: T3, Transcriptional enhancer factor TEF-3; test: Inhibition of TEAD4 (unknown origin) transfected in human HEK293 cells co-transfected with renilla plasmid assessed as maximum inhibition of transcriptional activity at 0.01 to 100 uM incubated for 24 hrs by dual Glo-luciferase reporter assay relative to control; format: cell-based; conditions: dose 0.01-100 µM
[8] = molecular target: T4, Transcriptional enhancer factor TEF-5 (Homo sapiens, UniProt Q99594); test: Displacement of FAM- labeled YAP1 peptide (60 to 99 residues) from human TEAD3 (210 to 427 residues) expressed in Escherichia coli BL21 (DE3) cells incubated for 24 hrs by fluorescence polarization-based competitive binding assay
T4 sequence (Q99594 whole entry, the tested form may be a part): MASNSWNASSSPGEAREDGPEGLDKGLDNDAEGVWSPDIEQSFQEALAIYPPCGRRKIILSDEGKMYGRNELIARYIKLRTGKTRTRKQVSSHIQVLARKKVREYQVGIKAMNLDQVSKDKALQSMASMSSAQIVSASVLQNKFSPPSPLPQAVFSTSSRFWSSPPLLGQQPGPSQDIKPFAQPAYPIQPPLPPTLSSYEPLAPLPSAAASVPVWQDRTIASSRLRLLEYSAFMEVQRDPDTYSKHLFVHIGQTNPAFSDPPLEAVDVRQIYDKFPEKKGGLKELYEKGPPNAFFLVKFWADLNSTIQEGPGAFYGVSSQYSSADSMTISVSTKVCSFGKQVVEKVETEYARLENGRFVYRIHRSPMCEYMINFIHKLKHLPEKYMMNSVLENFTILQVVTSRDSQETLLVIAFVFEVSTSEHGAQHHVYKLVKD

[9] = molecular target: T3, Transcriptional enhancer factor TEF-3; test: Inhibition of TEAD4 (unknown origin) transfected in human HEK293 cells co-transfected with renilla plasmid assessed as inhibition of transcriptional activity incubated for 24 hrs by dual Glo-luciferase reporter assay; format: cell-based
[10] = Inhibition of TEAD in human MDA-MB-468 cells assessed as inhibition of CTGF transcriptional level incubated for 24 hrs by qRT-PCR assay; format: cell-based; conditions: Homo sapiens, MDA-MB-468, 24 h; read-out: IC50
[11] = molecular target: YAP1-TEAD4 (Homo sapiens) (UniProt P46937+Q15561); test: Inhibition of NanoLuc-tagged TEAD4 (unknown origin)-Halo-Tagged YAP1 (unknown origin) protein-protein interaction transfected in HEK293 cells using furimazine as substrate at 10 uM incubated for 2 to 24 hrs by NanoBRET binding assay; format: cell-based; conditions: time 2-24 hrs
[12] = molecular target: T2, Transcriptional enhancer factor TEF-1; test: Inhibition of TEAD1 (unknown origin) transfected in human HEK293 cells co-transfected with renilla plasmid assessed as maximum inhibition of transcriptional activity at 0.1 to 10 uM incubated for 24 hrs by dual Glo-luciferase reporter assay relative to control; format: cell-based; conditions: dose 0.1-10 µM
[13] = molecular target: T2, Transcriptional enhancer factor TEF-1; test: Inhibition of TEAD1 (unknown origin) transfected in human HEK293 cells co-transfected with renilla plasmid assessed as inhibition of transcriptional activity incubated for 24 hrs by dual Glo-luciferase reporter assay; format: cell-based
[14] = molecular target: T4, Transcriptional enhancer factor TEF-5; test: Inhibition of TEAD3 (unknown origin) transfected in human HEK293 cells co-transfected with renilla plasmid assessed as inhibition of transcriptional activity incubated for 24 hrs by dual Glo-luciferase reporter assay; format: cell-based
[15] = molecular target: T1, Transcriptional enhancer factor TEF-4; test: Inhibition of TEAD2 (unknown origin) transfected in human HEK293 cells co-transfected with renilla plasmid assessed as inhibition of transcriptional activity incubated for 24 hrs by dual Glo-luciferase reporter assay; format: cell-based
[16] = molecular target: T1, Transcriptional enhancer factor TEF-4; test: Inhibition of TEAD2 (unknown origin) transfected in human HEK293 cells co-transfected with renilla plasmid assessed as maximum inhibition of transcriptional activity at 0.1 to 10 uM incubated for 24 hrs by dual Glo-luciferase reporter assay relative to control; format: cell-based; conditions: dose 0.1-10 µM
[17] = molecular target: T3, Transcriptional enhancer factor TEF-3; test: Inhibition of TEAD4 (unknown origin) transfected in human HEK293 cells co-transfected with renilla plasmid assessed as maximum inhibition of transcriptional activity at 0.1 to 10 uM incubated for 24 hrs by dual Glo-luciferase reporter assay relative to control; format: cell-based; conditions: dose 0.1-10 µM

Row | IC50 [1] [nM] | IC50 ([2]; read-out: IC50) [nM] | inhibition [3] | Imax [4] [%] | IC50 ([6]; read-out: IC50) [nM] | Imax [7] [%] | IC50 [8] | IC50 ([9]; read-out: IC50) [nM] | IC50 [10] [nM] | IC50 [6] | inhibition [11] | Imax [12] [%] | IC50 [13] [nM] | IC50 [14] [nM] | IC50 [15] [nM] | Imax [16] [%] | Imax [17] [%] | IC50 [2] | IC50 ([9]; hek293) | Compound | Imax [5] [%]
1 | 2100 | 1300 | inactive | 40 | 5400 | 98.7 | Not Active | 10500 | 5500 |  |  |  |  |  |  |  |  |  |  | N#CN1Cc2cccc(Nc3ccccc3C(F)(F)F)c2C1 | 36.7
2 | 800 | 200 |  | 33 |  |  | Not Active | 2100 | 1500 | Not Active |  |  |  |  |  |  |  |  |  | N#CN1Cc2cccc(Nc3ccc(C(F)(F)F)cc3)c2C1 | 59.6
3 | 27600 | 1600 | inactive | 45 | 51700 | 87.3 | Not Active | 400 | 1100 |  | inactive | 40 | 1600 | 1200 | 2200 | 28.2 | 41.3 |  |  | N#CN1CC2CCCC(Nc3cccc(C(F)(F)F)c3)C2C1 (stereo not drawn) | 28.6
4 | 7500 |  |  | 20 |  |  | Not Active |  | 2200 | Not Active |  |  |  |  |  |  |  | Not Active | Not Active | N#CN1CC2CCCC(Nc3ccccc3C(F)(F)F)C2C1 (stereo not drawn) | 41.1
